“And” between values parts separate entries of the source, which are not always exact repeats. Identical values can stand only once. “Also recorded” adds a separate entry of the source.
Experiments:
[1] = Survival after lethal irradiation and bone marrow transplantation; type: in vivo
Method: To protect from kidney damage, mice were simultaneously subcutaneously (s.c.) injected with 1 mL of saline solution.
(§1) To induce acute peripheral sympathectomy, mice received two i.p. injections of 60HDA (Sigma; 100 mg/kg on day 0; 250 mg/kg on day 2). Three days after the last injection of 60HDA mice were euthanized for analysis, transplanted (see below) or injected with 5-fluorouracil (see below).
(§2) Mice were irradiated (1,200 cGy, two split doses, 3 hours apart) in a Cesium Mark 1 irradiator (JL Shepperd & associates). Three hours later, the indicated number of BMNCs was injected retroorbitally in the irradiated recipients under isoflurane (Phoenix Pharmaceuticals) anesthesia. Mice were allowed to recover and analyzed at the indicated time points.
(§3) To induce neuroprotection from 60HDA, mice were injected with 4-MC (10 μg/kg; i.p.) or GDNF-Fc (5 μg per mice; s.c.) for 5 days, starting the treatment the same day as the first injection of 60HDA.

[2] = tested on: bone marrow; assay: Bone marrow regeneration after 5FU (or sublethal irradiation) in 60HDA-sympathectomized mice; type: in vivo
Method: as §1
(§4) To induce bone marrow ablation and force quiescent HSC to proliferate, 5FU (250 mg/kg; Sigma) was injected i.v. under isoflurane (Phoenix Pharmaceuticals) anesthesia. Mice were allowed to recover and analyzed at the indicated time points.
as §3
(§5) Blood was harvested by retro-orbital sampling of mice anesthetized with isoflurane and collected in polypropylene tubes containing ethylenediaminetetraacetic acid (EDTA). Blood parameters were determined with an AcT differential counter (Beckman-Coulter). CFU-C assays were performed as described in He et al., Ann. Rev. Cell. Dev. Biol. 25:377 (2009), incorporated herein by reference. For flow cytometry, red blood cells were lysed thrice for 5 minutes at 4° C. in 0.15 M NH4Cl, cells were washed once in ice-cold PBS and counted in a hemocytometer. To determine Lin^−Sca1^+c-kit^+ or Lin^−Sca1^+c-kit^+ft13^− numbers, 10^6 cells were stained with the Mouse Lineage Panel (BD Biosciences) together with FITC-conjugated anti-Sca-1 antibody (BD Biosciences), PE-Cy7-conjugated anti-c-kit antibody (eBioscience) and PE-conjugated anti-flt3 antibody (eBioscience). Cells were further stained with streptavidin-Cy5 (Jackson Immunotech) and analyzed with a BD LSR11 system (BD Biosciences). Bone marrow was harvested by flushing the bone with 1 mL of ice-cold PBS, red blood cells were lysed once for 5 minutes at 4° C. in 0.15 M NH4Cl, cells were washed once in ice-cold PBS and counted with a hemocytometer. CFU-C and Lin^−Sca1^+c-kit^+ft13^− numbers were determined as above. In some experiments, CD150^+CD48^− cell numbers were determined by staining 5×10^6 cells with PE-anti-CD48 antibody (BD Biosciences) and PE-Cy7-anti-CD150 antibody (Biolegend).

[3] = tested on: bone marrow; assay: CFU-C homing efficiency to bone marrow; type: in vivo; settings: compared to control mice, 24 hours after irradiation and BMNC injection
[4] = tested on: Nestin+ niche cells; assay: HSC niche cell analyses (Nestin+ cells, osteoblasts, endothelial cells, macrophages, α-SMA+ cells); type: in vivo
Source text: Since the SNS directs HSC trafficking by acting on Nestin^+ niche cells through the β3 adrenergic receptor, the changes that occurred in the HSC niche after SNS injury and genotoxic insult were investigated. […] The reason for reduced Nestin^+ numbers in SNS-injured mice during BM recovery was then investigated.

[5] = tested on: bone marrow; assay: Steady-state bone marrow analysis after cisplatin or 60HDA treatment; type: in vivo, mice; settings: 3 days after last 60HDA injection
Method: To protect from kidney damage, mice were simultaneously subcutaneously (s.c.) injected with 1 mL of saline solution. Four weeks after the last injection of cisplatin, mice were euthanized for analysis, transplanted (see below) or mobilized with granulocyte colony-stimulating factor (G-CSF, see below).
as §1
Blood was harvested by retro-orbital sampling of mice anesthetized with isoflurane and collected in polypropylene tubes containing ethylenediaminetetraacetic acid (EDTA). Blood parameters were determined with an AcT differential counter (Beckman-Coulter). […] For flow cytometry, red blood cells were lysed thrice for 5 minutes at 4° C. in 0.15 M NH4Cl, cells were washed once in ice-cold PBS and counted in a hemocytometer. […] Cells were further stained with streptavidin-Cy5 (Jackson Immunotech) and analyzed with a BD LSR11 system (BD Biosciences). Bone marrow was harvested by flushing the bone with 1 mL of ice-cold PBS, red blood cells were lysed once for 5 minutes at 4° C. in 0.15 M NH4Cl, cells were washed once in ice-cold PBS and counted with a hemocytometer. […]

[6] = Survival after 5FU injection in 60HDA-sympathectomized mice; type: in vivo
Method: as §1, §4, §3

[7] = tested on: bone marrow; assay: Bone marrow hematopoietic recovery after transplantation (BMNC, CFU-C, Lin-Sca1+c-kit+flt3- cells); type: in vivo, mice; settings: for hematopoietic recovery in BM after transplantation (progenitors, Lin-Sca1+c-kit+flt3- cells, total BM): about 4 weeks / 30 days post-transplantation, vs saline
Method: as §2, with “points. […]” for “points.”
as §5

[8] = Complete blood counts of moribund 6OHDA-treated mice after 5FU; type: in vivo; settings: for CH / CHCM / HDW / HCT / Hgb / MCH / MCHC / RDW: moribund 6OHOA-treated mouse
Method: as §1, §4, §5

[9] = target: T1, β3 adrenergic receptors (Mus musculus, UniProt P25962); assay: β3 adrenergic blockade during 5FU-induced BM regeneration; type: in vivo, mice
T1 construct: β3 adrenergic receptors expressed by niche cells; from tissue; host or cells: live mice (wild-type or Adrb2-/-); receptor expressed by bone marrow niche cells
Method: as §4
To investigate the role of β2 or β3 adrenergic receptors in bone marrow regeneration, β3 adrenergic signaling was blocked in wild-type or Adrb2^tm1Bkk/J mice by injecting the β3-specific antagonist SR59230A (5 mg/kg, i.p.; Sigma), daily for 3 days.

[10] = tested on: TH+ fibers; assay: Immunofluorescence quantification of TH+ sympathetic fibers in bone marrow / calvaria
Method: Bones were collected and fixed for 1 hour in 4% paraformaldehyde (PFA) in PBS (Electron Microscopy Sciences) at 4° C. They were then post-fixed overnight in 1% PFA in PBS at 4° C. and cryoprotected for 24 hours in 30% sucrose. Bones were then included in OCT (Tissue Tek), sectioned (14 μm sections) in a Cryostat, and mounted on CFSA 4× Slides (Leica). TH^+ immunofluorescence staining was performed as previously described in Mendez-Ferrer, et al., Nature 452:442 (2008), incorporated herein by reference. For each mouse analyzed, the number of nerve fibers in 6 fields was quantified and plotted as per mm^2. For whole-mount immunofluorescence, calvaria were harvested by cutting along the temporal lines of the skull and immediately fixed in methanol. Bone tissues were blocked/permeabilized in PBS containing 20% FCS and 0.5% Triton and stained with APC-conjugated anti-PECAM CD31 antibody and TH (Millipore). Signal amplification for TH staining was achieved by using a signal amplification kit (Perkin Elmer). Whole-mount tissues were imaged face-down on an upright Olympus BX61WI microscope. The area between the frontal and parietal bones was identified by moving along the coronal suture and images were obtained from the same area for all mice, along the coronal vein on either side of the central vein. The numbers of individual nerve fibers running alongside blood vessels were quantified and plotted as per 100 μm vessel segment. All images were processed using Slidebook software (Intelligent Imaging Innovations, Inc.).

[11] = 60HDA-treated mice, eight days after 5FU
[12] = 10 days after 5FU (250 mg/kg), listed as 6OHOA
[13] = 60HDA-lesioned mice plus agent, 12 days after 5FU
[14] = cisplatin-treated mice plus 4-MC

T1 sequence (P25962 whole entry): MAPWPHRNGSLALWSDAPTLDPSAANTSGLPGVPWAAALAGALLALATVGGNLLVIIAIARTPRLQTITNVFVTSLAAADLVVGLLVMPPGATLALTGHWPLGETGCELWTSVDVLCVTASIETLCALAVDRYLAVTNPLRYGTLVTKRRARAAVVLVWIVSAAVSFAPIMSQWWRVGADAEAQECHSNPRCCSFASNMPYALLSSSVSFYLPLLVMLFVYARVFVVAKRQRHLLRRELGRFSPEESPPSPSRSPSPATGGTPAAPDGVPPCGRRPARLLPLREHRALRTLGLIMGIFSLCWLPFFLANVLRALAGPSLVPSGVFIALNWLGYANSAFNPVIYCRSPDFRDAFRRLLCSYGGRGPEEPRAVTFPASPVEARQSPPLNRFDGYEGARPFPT

In the case of `NCCc1cc(O)c(O)cc1O` [60HDA, 6-hydroxydopamine], the mortality after transplantation ([1]; lethally irradiated, transplanted with wild-type BMNC) is reported as “significant increase in mortality”, the “hematopoietic recovery after 5FU” value ([2]; 60HDA-sympathectomized mice, day 12) is reported as “significantly impaired hematopoietic recovery” and the “BM recovery after sublethal irradiation” value ([2]; 60HDA-treated mice, 12 days after irradiation) is reported as “Reduced BM recovery”. For the same molecule, the “Lin-Sca1+c-kit+flt3- cell expansion after 5FU” value ([2]; 60HDA-treated mice, days 4 to 12) was “blunted”, the LSK cell proliferation [2, 11] was “increased proliferation” and the LSK cell viability [2, 11] was “reduced viability”. The CFU-C homing efficiency [3] was “No differences; also recorded: No defect”, the “Nestin+ cell death (apoptosis)” value ([4]; 60HDA mice, 24 hours after 5FU) was “significant increase” and the “endothelial cells, BM monocyte/macrophages, α-SMA+ perivascular cells 12 days after 5FU” value ([4]; 60HDA- vs saline-treated mice) was “failed to detect differences”. The “Nestin+ cell numbers 12 days after 5FU” value ([4]; 60HDA-sympathectomized mice) was “severe deficit”, the “endothelial cells, osteoblasts, CD68+ cells, α-SMA+ perivascular cells by immunofluorescence prior to 5FU” value ([4]; 60HDA-treated vs saline mice) was “did not reveal differences” and the “number of Nestin+ cells prior to 5FU” value ([4]; 60HDA-treated vs saline mice) was “significant increase”. For the same molecule, the “osteoblast numbers prior to 5FU” value ([4]; 60HDA-treated vs saline mice) was “slightly increased”, the “BM cellularity, CFU-C, Lin-Sca1+c-kit+flt3-, CD48-CD150+ cell numbers, Lin-Sca1+c-kit+ cell cycling” value [5] was “did not alter; also recorded: does not induce significant changes” and the “survival after 5FU” value ([6]; 60HDA-sympathectomized vs saline mice) was “dramatically reduced their survival”. The “hematopoietic recovery in BM after transplantation (progenitors, Lin-Sca1+c-kit+flt3- cells, total BM)” value [7] was “significant reductions in hematopoietic recovery; also recorded: delayed hematopoietic recovery”, the “cause of reduced survival after 5FU” value ([8]; 60HDA-sympathectomized mice) was “BM failure” and the CH ([8]; 8 days after 5FU (250 mg/kg)) was 13.3 pg and 12.8 pg and 12.9 pg. The CHCM ([8]; 8 days after 5FU (250 mg/kg)) was 32.8 g·dL and 31.8 g·dL and 31.2 g·dL, the HDW ([8]; 8 days after 5FU (250 mg/kg)) was 2.34 g·dL and 1.78 g·dL and 1.74 g·dL and the CH ([8]; 9 days after 5FU (250 mg/kg)) was 13.5 pg. The CHCM ([8]; 9 days after 5FU (250 mg/kg)) was 33.7 g·dL and 33 g·dL, the HCT ([8]; 9 days after 5FU (250 mg/kg)) was 11 and the HDW ([8]; 9 days after 5FU (250 mg/kg)) was 2.27 g·dL and 2.34 g·dL. The Hgb ([8]; 9 days after 5FU (250 mg/kg)) was 3 g·dL, the MCH ([8]; 9 days after 5FU (250 mg/kg)) was 9.7 pg and 9.1 pg and the MCHC ([8]; 9 days after 5FU (250 mg/kg)) was 24.3 g·dL and 22.3 g·dL. The RDW ([8]; 9 days after 5FU (250 mg/kg)) was 12.5 and 12.6, the CH [8, 12] was 12.8 pg and 12.9 pg and the CHCM [8, 12] was 29.3 g·dL and 30.5 g·dL. The HCT [8, 12] was 13 and 10, the HDW [8, 12] was 1.67 g·dL and 2.03 g·dL and the Hgb [8, 12] was 4 g·dL and 6 g·dL. The MCH [8, 12] was 12.8 pg and 18.9 pg, the MCHC [8, 12] was 29.3 g·dL and 44.4 g·dL and the RDW [8, 12] was 12.2 and 13.2. It also gave a CH ([8]; 11 days after 5FU (250 mg/kg)) of 13.2 pg, a CHCM ([8]; 11 days after 5FU (250 mg/kg)) of 30.7 g·dL and an HCT ([8]; 11 days after 5FU (250 mg/kg)) of 14. It also gave an HDW ([8]; 11 days after 5FU (250 mg/kg)) of 1.95 g·dL, a Hgb ([8]; 11 days after 5FU (250 mg/kg)) of 3 g·dL and an MCH ([8]; 11 days after 5FU (250 mg/kg)) of 10.5 pg. It also gave an MCHC ([8]; 11 days after 5FU (250 mg/kg)) of 24.3 g·dL, an RDW ([8]; 11 days after 5FU (250 mg/kg)) of 11.3 and a CH ([8]; 12 days after 5FU (250 mg/kg)) of 12.6 pg. For the same molecule, the CHCM ([8]; 12 days after 5FU (250 mg/kg)) was 31.1 g·dL, the HCT ([8]; 12 days after 5FU (250 mg/kg)) was 15 and the HDW ([8]; 12 days after 5FU (250 mg/kg)) was 2.31 g·dL. It also gave a Hgb ([8]; 12 days after 5FU (250 mg/kg)) of 3 g·dL, an MCH ([8]; 12 days after 5FU (250 mg/kg)) of 9.3 pg and an MCHC ([8]; 12 days after 5FU (250 mg/kg)) of 22.9 g·dL. It also gave an RDW ([8]; 12 days after 5FU (250 mg/kg)) of 13.5.
For `CC[C@]1(O)C[C@H]2CN(CCc3c([nH]c4ccccc34)[C@@](C(=O)OC)(c3cc4c(cc3OC)N(C=O)[C@H]3[C@@](O)(C(=O)OC)[C@H](OC(C)=O)[C@]5(CC)C=CCN6CC[C@]43[C@@H]65)C2)C1` [vincristine], the “BM recovery 3 months after transplantation” value ([7]; mouse, in vivo) was “not yet completely recovered” and the “HSC content by competitive repopulation assays” value ([7]; mouse, in vivo) was “reduced HSC content”.
For `CCc1ccccc1OC[C@@H](O)CN[C@H]1CCCc2ccccc21` [SR59230A], the “hematopoietic regeneration after 5FU with both β2 and β3 receptors disrupted” value ([9]; Adrb2-/- mice plus SR59230A) was “most severe impairment; also recorded: severe impairment in hematopoietic regeneration” and the “hematopoietic recovery after 5FU under β3 blockade” value ([9]; wild-type mice, SR59230A alone) was “sufficient to impair hematopoietic regeneration; also recorded: partially compromised hematopoietic recovery”.
With `N.N.O=C([O-])C1(C(=O)[O-])CCC1.[Pt+2]` [carboplatin] the “hematopoietic recovery in BM after transplantation (progenitors, Lin-Sca1+c-kit+flt3- cells, total BM)” value [7] was “not”.
With `Cc1ccc(O)c(O)c1` [4-MC, 4-methylcatechol] the “survival after transplantation with neuroprotective agent” value ([1]; cisplatin-treated mice plus agent) was “no death was observed; also recorded: completely abolished transplant-associated death; also recorded: completely prevented neuropathy-induced death”, the “TH+ / SNS fiber recovery” value [10, 13] was “induced TH^+ fiber recovery; also recorded: significant recovery in the number of BM SNS fibers; also recorded: protects sympathetic fibers” and the “increase in bone marrow TH+ fiber density” value ([10]; cisplatin+4-MC compared to cisplatin+saline, p<0.05) was 2 fold. For the same molecule, the “HSC recovery by competitive repopulation assays” value ([2]; 60HDA-lesioned mice plus 4-MC, after 5FU) was “significant increase in HSC recovery”, the “hematopoietic recovery after 5FU with neuroprotective agent (BM, LSKF cells)” value [2, 13] was “increased hematopoietic recovery; also recorded: significantly increased” and the “BM recovery after 5FU in Tα1-Cre:TrkANeo/Neo mice” value ([2]; sympathectomized mice treated with 4-MC, TrkA restricted to nervous system) was “recovery comparable to that of wild-type mice”. The “Nestin+ cell number 12 days after 5FU” value ([4]; 60HDA mice plus 4-MC) was “restored normal Nestin^+ cell number”, the “SNS-injury-induced expansion of Nestin+ cells and osteoblasts prior to 5FU” value ([4]; 60HDA mice plus 4-MC) was “abolished the expansion” and the “other niche cells (endothelial cells, BM macrophages, perivascular α-SMA cells)” value ([4]; 60HDA mice plus 4-MC, before or after 5FU) was “did not affect other niche cells”. The “endothelial cells, BM macrophages, perivascular α-SMA+ cells before BMT” value [4, 14] was “without affecting”, the “expansion in Nestin+ cells and osteoblasts before BMT” value [4, 14] was “ameliorated the expansion” and the “survival after 5FU with neuroprotective agent” value ([6]; 60HDA-lesioned mice plus agent) was “completely protected from death; also recorded: completely abolished 5FU-associated cell death”. The “HSC frequency and absolute numbers (LTC-IC, competitive repopulation assays)” value ([7]; cisplatin-treated mice plus 4-MC, after transplantation) was “higher frequency and absolute numbers of HSC” and the “bone marrow regeneration after transplantation with neuroprotective agent (BM cellularity, progenitor counts, LSKF cells)” value ([7]; cisplatin-treated mice plus agent, one month after transplantation) was “accelerated bone marrow regeneration; also recorded: significantly improves hematopoietic cell counts”.

Reference: patent publication US20130230580A1, “Administration of SNS Neuroprotective Agents to Promote Hematopoietic Regeneration” (priority 2010, published 2013)
